{
  "source": "patent US10232037B2",
  "about": "“Supramolecular hydrogel of fMLF-based molecules and use thereof” (BRANDEIS UNIVERSITY, priority 2014, dated 2019)",
  "origin": "cited, not measured here",
  "system": "neutrophils",
  "details": "aqueous solution, literature",
  "data": [
    {"smiles": "CSCC[C@H](NC=O)C(=O)N[C@@H](CC(C)C)C(=O)N[C@@H](Cc1ccccc1)C(=O)O", "note": "[fMLF, N-formyl-L-methionyl-L-leucyl-L-phenylalanine]", "values": [
      {"measurement": "duration of neutrophil accumulation effect", "result": "2 to 6", "unit": "h"}
    ]}
  ]
}
